The values that follow come from ChEMBL document CHEMBL4052779, “Isosorbide-based peptidomimetics as inhibitors of hepatitis C virus serine protease” (Bioorg Med Chem Lett, 2017).

The nature of data set [1]: Solubility of the compound in aqueous buffer. The format is physicochemical.
The subject of data set [2] is Hepacivirus hominis. Kind of data set: Inhibition of recombinant HCV NS3/4A protease at 100 uM pre-incubated for 10 mins followed by 5-FAM/QXL520 substrate addition and measured after 60 mins by FRET analysis relative to control.
Data set [3] is described as follows: Inhibition of recombinant HCV NS3/4A protease pre-incubated for 10 mins followed by 5-FAM/QXL520 substrate addition and measured after 60 mins by FRET analysis relative to control. Also on record: species or system Hepacivirus hominis.
For data set [4], the system named is Hepacivirus hominis. The data set is described as follows: Inhibition of recombinant HCV NS3/4A protease V170A mutant assessed as residual enzyme activity at 100 uM pre-incubated for 10 mins followed by 5-FAM/QXL520 substrate addition and measured after 60 mins by FRET analysis relative to control.
Data set [5] deals with Hepacivirus hominis. Kind of data set: Inhibition of recombinant wild type HCV NS3/4A protease assessed as residual enzyme activity at 100 uM pre-incubated for 10 mins followed by 5-FAM/QXL520 substrate addition and measured after 60 mins by FRET analysis relative to control.
The subject of data set [6] is Hepatitis C virus serine protease, NS3/NS4A (Hepatitis C virus), D2K2A8+A3EZI9 [D168A]. Kind of data set: Inhibition of recombinant HCV NS3/4A protease D168A mutant assessed as residual enzyme activity at 100 uM pre-incubated for 10 mins followed by 5-FAM/QXL520 substrate addition and measured after 60 mins by FRET analysis relative to control. The following applies: Hepacivirus hominis.

For the compound `O=C(N[C@@H]1CO[C@H]2[C@@H]1OC[C@H]2OCc1ccccc1)/C(=C/c1cccs1)NC(=O)c1ccccc1`, in data set [1], the solubility entry is given as “Insoluble”. Besides, the inhibition with Hepacivirus hominis [2] came out at 45%. As to `C[C@@H](O)[C@H](NC(=O)OC(C)(C)C)C(=O)N[C@H]1CO[C@H]2[C@@H]1OC[C@@H]2OCc1ccccc1`, in data set [1], the solubility result is “Insoluble”.

Turning to `O=C(N[C@H]1CO[C@H]2[C@@H]1OC[C@@H]2OCc1ccccc1)/C(=C/c1ccco1)NC(=O)c1ccccc1`, the solubility result in data set [1] was “Soluble”. The IC50 in data set [3] turned out to be 36 µM. For the same compound, in the data set with Hepacivirus hominis [2], the inhibition came out at 81.8%. The Activity came to 6.7% in the data set with Hepacivirus hominis [4], 18.2% in the data set with Hepacivirus hominis [5] and 36.7% in data set [6]. `CC(C)(C)OC(=O)N[C@@H](CCCN/C(=N\C(=O)OCc1ccccc1)NC(=O)OCc1ccccc1)C(=O)N[C@H]1CO[C@H]2[C@@H]1OC[C@@H]2OCc1ccccc1`: the solubility entry in data set [1] is listed as “Insoluble”. On the same count and under the same terms, with `CC(C)(C)OC(=O)N[C@@H](Cc1c[nH]c2ccccc12)C(=O)N[C@H]1CO[C@H]2[C@@H]1OC[C@@H]2OCc1ccccc1` the entry was “Insoluble”. On to `O=C(N[C@H]1CO[C@H]2[C@@H]1OC[C@@H]2OCc1ccccc1)/C(=C/c1cc2ccccc2s1)NC(=O)c1ccccc1`, for which the solubility result in data set [1] was “Soluble”. Also, the inhibition in the data set on Hepacivirus hominis [2] was found to be 30.3%.

`COc1ccc(CO[C@H]2CO[C@H]3[C@@H]2OC[C@@H]3NC(=O)/C(=C/c2cccs2)NC(=O)c2ccccc2)cc1`: in data set [1], the solubility entry is “Insoluble”. Same read-out and setting: next, `CC(C)(C)OC(=O)N1CCC[C@H]1C(=O)N[C@H]1CO[C@H]2[C@@H]1OC[C@@H]2OCc1ccccc1`: “Insoluble”.
